Here are results for 17 molecules from patent EP1664254B9, “LIQUID LAUNDRY DETERGENT WITH POLYANIONIC AMMONIUM SURFACTANT” (priority 2003, dated 2005).

For orientation: pKa means the pH at which an ionisable group is half protonated.

For data set [1] the following is noted: cited from earlier work.
For data set [2] the following is noted: cited from earlier work. This is another data set of the same source.
The nature of data set [3]: Water solubility / appearance and pH of solution on mixing, dilution and standing. In kind it is physicochemical. The settings on record: TEPA 2.0 g in water 94.0 g. An excerpt: In Example 1 (within the scope of the invention), when LAS acid was neutralized with a polyamine (i.e., TEPA), it formed PAAS. As PAAS began forming, the solution became hazy. Upon further addition of the LAS acid, the hazy solution became a dispersion. Upon standing for hours, the dispersion formed a layer of sediment at the bottom of the beaker. Even a very diluted formulation (such as below 0.1%) was hazy.
The solution was clear at the all time over the entire pH range, leading to the conclusion that Na-LAS was fully ionized or disassociated.
Sodium xylenesulfonate was added to an aqueous PAAS dispersion to attempt to solubilize PAAS by ion-exchange and/or hydrotrope mechanism.
Example 1 was repeated, except that fatty acid was used in place of LAS acid. […]
This example investigated the solubilization of PAAS in water, with the aid of a solubiliser. A dispersion of PAAS (with LAS and fatty acid as conjugated acid) was mixed with Na-LES solution (59.5% Na-LES, 10% propylene glycol, 6.5% ethanol, and balance of water). […]

Where [4] appears, read: from CRC Handbook of Chemistry and Physics, 83rd Edition.
Where [5] appears, read: * from Huntsman Technical Bulletin "Amine applications and properties data applications".

Like-named read-outs stand apart in the source and are kept apart here.

`CC(N)(O)CN` (centres unmarked) [1,2-diamino-2-propanol]: in data set [1] (setting [4]), the pKa1 was 9.69 and the pKa2 is 7.93. With `CC(N)CN` (centres unmarked) [1,2-propanediamine], in data set [1] (setting [4]), the pKa1 was 9.82 and the pKa2 was 6.61. On to `NCCCN` [1,3-propanediamine], for which the pKa2 in data set [1] (setting [4]) is given as 8.88. As for `NCCCCN` [1,4-Butanediamine], the pKa in data set [1] (setting [4]) is recorded as 10.80. As for `NCCCCCN` [1,5-pentanediamine], in data set [1] (setting [4]), the pKa1 was 10.25 and the pKa2 is 9.13. On to `NCCCCCCN` [1,6-Hexanediamine], for which, in data set [1] (setting [4]), the pKa1 is reported as 11.86 and the pKa2 is recorded as 10.76. Consider `CC(C)(C)CN` [2,2-dimethylpropylamine], for which the pKa in data set [1] (setting [4]) is recorded as 10.15.

Consider `COCCN` [2-mthyloxyethylamine], for which, in data set [1] (setting [4]), the pKa was 9.40. For the molecule `NC1CCCCC1` [Cyclohexylamine], the pKa in data set [1] (setting [4]) was 10.64. `NCCN` [Ethylenediamine (EDA), Ethylenediamine]: the pKa in data set [1] (setting [5]) was 9.90*. For the same molecule, in data set [1] (setting [4]), the pKa1 was 9.92 and the pKa2 is 6.82. Turning to `[K+].[OH-]` [KOH, potassium hydroxide], the pH in data set [2] (0.01 N) is reported as 12.0; in data set [2] (1.0 N aqueous solutions), 14.0. For the molecule `CNO` [Methylhydroxylamine], in data set [1] (setting [4]), the pKa is reported as 12.50. On to `CN(C)CCN(C)C` [N,N,N',N'-Tetramethyl1,2-ethanediamine], for which, in data set [1] (setting [4]), the pKa1 is recorded as 10.40 and the pKa2 is listed as 8.26. In the case of `[Na+].[OH-]` [NaOH, sodium hydroxide], the pH is given as 12.0 in data set [2] (0.01 N) and 14.0 in data set [2] (1.0 N aqueous solutions). Consider `NCCNCCNCCNCCN` [TEPA, Tetraethylenepentamine], for which, in data set [3], the Observations result is “Clear”.

Take `NCCNCCNCCN` [Triethylenetetramine (TETA), Triethylenetetramine]: in data set [1] (setting [5]), the pKa is listed as 9.80*.

Turning to ethoxide CH3CH2O^-, in data set [1] (according to McMurry, Organic Chemistry, p. 45, 1984), the pKa was 16.
